For assay [1], the system named is VTA dopamine neurons. Kind of assay: Electrophysiology: spontaneous firing of VTA dopamine neurons in slices. The class given is cell-based, C57Bl/6J mice. The settings on record: 10 nM, bath applied 5 min; positive control. Here is the method:
All electrophysiological recordings were performed in slice preparations from C57Bl/6J mice (P21-P30). Briefly, mice were anaesthetized with isoflurane and transcardially perfused with an ice-cold sucrose solution containing (in mM): 50 sucrose, 26.2 NaHCO3, 1.25 glucose, 4.9 MgCl2, 3 kynurenic acid, 0.1 CaCl2, and 1.32 ascorbic acid in bicarbonate-buffered solution (aCSF, described below). Mice were then decapitated and brains were extracted. […] Cells were visualized on an upright microscope using “Dodt-type” gradient contrast infrared optics ([Dodt et al., 2002]) and whole-cell recordings were made using a MultiClamp 700B amplifier (Axon Instruments, Union City, CA, United States). Recording electrodes (3–5 MΩ) were filled with (in mM): 136 potassium-D-gluconate, 4 MgCl2, 1.1 HEPES, 5, EGTA, 10 sodium creatine phosphate, 3.4 Mg-ATP, and 0.1 Na2GTP. […] Spontaneous firing activity was recorded in current-clamp mode. […] Firing data for all neurons was analyzed with the MiniAnalysis program (Synaptosoft) using the same criteria. Drug-induced changes in firing are expressed as a percentage of baseline. Drug effects were calculated by comparing the response during the baseline/pre-drug period to the response 5 min after onset of drug administration. […] We therefore assessed the effects of compound 22 on firing rate of dopamine neurons. […]

Assay [2] concerns the target mouse TAAR1. On the set-up: method as in Bradaia et al., 2009. The settings on record: ref Bradaia et al., 2009; read-out: affinity for the mouse TAAR1; cited from earlier work.
In assay [3] the test system is human TAAR1 receptor. Also on record: method as in Bradaia et al., 2009. The settings on record: ref Bradaia et al., 2009; cited from earlier work.

Molecules are shown by their SMILES.

With `CCOc1cccc(NC(=O)c2ccc(N3CCCC3)c(C(F)(F)F)c2)c1` [EPPTB], in assay [1], the “increase in firing of dopamine neurons” value came out at 74%. In addition, the Ki in assay [2] is 0.9 nM. Also, the “binding to the human TAAR1 receptor” value in assay [3] is given as “does not bind”.

The values are drawn from article PMC6131539, “Behavioral Effects of a Potential Novel TAAR1 Antagonist” (Frontiers in Pharmacology, 2018).
